Experimental data taken from ChEMBL document CHEMBL1914415, “A sucrose-derived scaffold for multimerization of bioactive peptides” (Bioorg Med Chem, 2011).
Active and inactive are the calls of the source. No cut-off for these calls is given here.

Columns and labels:
[1] = biological target: T1, Gastrin/cholecystokinin type B receptor (Homo sapiens) (UniProt P32239); assay: Displacement of Eu-DTAP-CCK8-NH2 from CCK2 receptor expressed in human HEK293 cells at 10^-5 to 10^-12 M after 1 hr by time resolved fluorescence method; assay type: cell-based
T1 sequence (whole entry): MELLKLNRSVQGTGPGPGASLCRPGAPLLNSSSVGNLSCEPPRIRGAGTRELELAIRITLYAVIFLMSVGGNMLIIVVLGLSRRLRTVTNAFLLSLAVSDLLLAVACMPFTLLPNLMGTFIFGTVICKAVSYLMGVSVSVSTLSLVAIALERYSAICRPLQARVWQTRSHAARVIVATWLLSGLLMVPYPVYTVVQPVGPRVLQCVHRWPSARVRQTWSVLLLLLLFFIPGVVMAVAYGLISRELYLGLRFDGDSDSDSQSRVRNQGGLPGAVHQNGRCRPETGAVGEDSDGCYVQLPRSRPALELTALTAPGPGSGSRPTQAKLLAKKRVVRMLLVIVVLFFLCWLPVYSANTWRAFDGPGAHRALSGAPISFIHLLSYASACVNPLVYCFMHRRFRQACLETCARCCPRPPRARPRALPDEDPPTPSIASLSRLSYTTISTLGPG

[2] = biological target: Melanocortin receptor 4 (Homo sapiens) (UniProt P32245); assay: Displacement of Eu-DTAP-NDP-alpha-MSH-NH2 from MC4 receptor expressed in human HEK293 cells at 10^-5 to 10^-12 M after 1 hr by time resolved fluorescence method; assay type: cell-based
Sequence of Melanocortin receptor 4 (Homo sapiens) (P32245 whole entry): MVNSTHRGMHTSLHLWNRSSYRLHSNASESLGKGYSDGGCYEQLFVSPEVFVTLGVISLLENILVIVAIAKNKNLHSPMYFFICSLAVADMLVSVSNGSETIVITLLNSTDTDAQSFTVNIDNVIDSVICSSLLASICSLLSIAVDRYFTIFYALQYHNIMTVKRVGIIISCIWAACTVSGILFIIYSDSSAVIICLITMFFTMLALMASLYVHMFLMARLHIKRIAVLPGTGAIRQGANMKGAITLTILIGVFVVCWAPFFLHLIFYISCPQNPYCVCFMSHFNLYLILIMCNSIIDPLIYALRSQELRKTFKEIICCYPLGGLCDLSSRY

NC(=O)[C@H](CO)NC(=O)CCCCCn1cc(CCCCOC[C@H]2O[C@@](COCCCCc3cn(CCCCCC(=O)N[C@@H](CO)C(N)=O)nn3)(O[C@H]3O[C@H](COCCCCc4cn(CCCCCC(=O)N[C@@H](CO)C(N)=O)nn4)[C@@H](OCCCCc4cn(CCCCCC(=O)N[C@@H](CO)C(N)=O)nn4)[C@H](OCCCCc4cn(CCCCCC(=O)N[C@@H](CO)C(N)=O)nn4)[C@H]3OCCCCc3cn(CCCCCC(=O)N[C@@H](CO)C(N)=O)nn3)[C@@H](OCCCCc3cn(CCCCCC(=O)N[C@@H](CO)C(N)=O)nn3)[C@@H]2OCCCCc2cn(CCCCCC(=O)N[C@@H](CO)C(N)=O)nn2)nn1
Activity [1]: inactive | Activity [2]: inactive
